Data as given in patent US20140066365A1, “USE OF CALIXARENES ASSOCIATED WITH AN ANTIBIOTIC IN THE TREATMENT OF BACTERIAL INFECTIONS” (priority 2011, published 2014).
In brackets after ≈: the same amount, converted by molar mass. Like-named read-outs stand apart in the source and are kept apart here.

Tests used:
Type in all cases: cell-based
[1] = test system: EcR2: Cephalosporinase-Hyperproducing Strain of Escherichia coli; test: Antibiogram by the disk diffusion technique; details: for Results: EcR2, rows that print a diameter; for CA-SFM Interpretation / CLSI Interpretation / EUCAST Interpretation: from diameter; for CA-SFM Interpretation: CA-SFM 2011; for CLSI Interpretation: CLSI 2011; for EUCAST Interpretation: EUCAST 2011
Protocol: The bacterial and antibiogramidentification is carried out by the VITEK 1 system (bioMérieux) and by the disk diffusion technique

[2] = test system: Pseudomonas aeruginosa strain PaR2; test: microbe, parasite or virus in culture; details: Pseudomonas aeruginosa, antibiotic alone (second value of cell), read-out: MIC
From the text: (§1) The MICs of the antibiotics were previously defined for each strain, by the method of microdilution in a liquid medium (CLSI (Clinical and Laboratory Standards Institute), 2003).

[3] = test system: PaR2: Pseudomonas aeruginosa; details: for CA-SFM Interpretation: Cd CA-SFM 2011; for CLSI Interpretation: Cd CLSI 2011; for EUCAST Interpretation: Cd EUCAST 2011; for Diameter: Table G1; for Results: Table G1, against Dmin-Dmax; for diameter in mm: Table G2
Protocol: (§2) The bacterial and antibiogramidentification is carried out by the VITEK 2 system (bioMérieux) and by the disk diffusion technique

[4] = test system: EcR1: Penicillinase-Producing Escherichia coli without Associated Resistance; test: Antibiogram, MIC by the VITEK 2 system; details: for CA-SFM Interpretation: EcR1, MIC against Cc CA-SFM 2011; for CLSI Interpretation: EcR1, MIC against Cc CLSI 2011; for EUCAST Interpretation: EcR1, MIC against Cc EUCAST 2011; for Results: EcR1, interpretation of the MIC, Table A1; for MIC: Escherichia coli
Protocol: (§3) 5.1 EcR1: Penicillinase-Producing Escherichia coli without Associated Resistance The bacterial and antibiogramidentification is carried out by the VITEK 2 system (bioMérieux) and by the disk diffusion technique.

[5] = test system: Escherichia coli, Staphylococcus aureus and Pseudomonas aeruginosa strains; test: Chessboard technique, summary statements over all strains and combinations tested; details: strain not stated
From the text: 1.3. Procedure: Chessboard Technique
The same procedure is followed for the Cx1. […] Thus 64 ATB/Cx1 combinations are obtained.
The FIC (Fractional Inhibitory Concentration Index) value is defined by the following formula: […]
When FIC≦0.5, there is a synergistic effect between antibiotic A and antibiotic B.
When 0.5<FIC≦1, there is an additive effect between antibiotic A and antibiotic B.
When 1<FIC≦4, there is an indifferent effect between antibiotic A and antibiotic B.
When FIC>4, there is an antagonistic effect between antibiotic A and antibiotic B.
For each strain and each antibiotic/Cx1 combination, the experiments were repeated a minimum of 3 times.

[6] = test system: penicillinase-producing strain of Escherichia coli without associated resistance (EcR1); test: MIC of the compounds used alone, microdilution in a liquid medium (CLSI); details: Escherichia coli, antibiotic alone (second value of cell), read-out: Initial MICs
From the text: as §1

[7] = test system: Pseudomonas aeruginosa strain ATCC 27853 (wild type); test: as above; details: Pseudomonas aeruginosa, ATCC27853; antibiotic alone (second value of cell); P. aeruginosa ATCC 27853; read-out: MIC
From the text: as §1

[8] = test system: Pseudomonas aeruginosa strain PaR3; test: as above; details: Pseudomonas aeruginosa, antibiotic alone (second value of cell), read-out: MIC
From the text: as §1

[9] = test system: ESBL-producing strain of Escherichia coli, having an associated resistance to the aminoglycosides (EcR3); test: as above; details: Escherichia coli, antibiotic alone (second value of cell), read-out: Initial MICs
From the text: as §1

[10] = test system: mucoid strain of Pseudomonas aeruginosa PaR5; test: as above; details: Pseudomonas aeruginosa, antibiotic alone (second value of cell), read-out: MIC
From the text: as §1

[11] = test system: cephalosporinase-hyperproducing strain of Escherichia coli (EcR2); test: as above; details: Escherichia coli, antibiotic alone (second value of cell), read-out: Initial MICs
From the text: as §1

[12] = test system: Escherichia coli strain ATCC 25922 (wild type); test: as above; details: Escherichia coli, ATCC25922; antibiotic alone (second value of cell); E. coli ATCC 25922; read-out: Initial MICs
From the text: as §1

[13] = test system: PaR3: Pseudomonas aeruginosa; test: Antibiogram, MIC by the VITEK 2 system; details: for CA-SFM Interpretation: Cc CA-SFM 2011; for CLSI Interpretation: Cc CLSI 2011; for EUCAST Interpretation: Cc EUCAST 2011
Protocol: (§4) The bacterial and antibiogramidentification is carried out by the VITEK 2 system (bioMérieux)

[14] = test system: PaR5: Pseudomonas aeruginosa; test: Antibiogram by the disk diffusion technique; details: for Diameter / Results / CA-SFM Interpretation / CLSI Interpretation / EUCAST Interpretation: PaR5; for Diameter / Results: Table I1; for Results: against Dmin-Dmax; for diameter in mm: disk diffusion inhibition diameter, strain PaR5; for CA-SFM Interpretation / CLSI Interpretation / EUCAST Interpretation: disk diffusion; for CA-SFM Interpretation: versus critical diameter CA-SFM 2011; for CLSI Interpretation: versus critical diameter CLSI 2011; for EUCAST Interpretation: versus critical diameter EUCAST 2011, for ** antibiotics the disk load differs and the EUCAST interpretation is not applicable
Protocol: as §2

[15] = test system: SaR1: Meticillin-Resistant Staphylococcus aureus without Associated Resistance; test: Antibiogram, inhibition diameter (Table D1)
Protocol: as §4

[16] = test system: EcR1: Penicillinase-Producing Escherichia coli without Associated Resistance; test: Antibiogram by the disk diffusion technique; details: Table A1
Protocol: as §3

[17] = test system: EcR3: ESBL-Producing Escherichia coli; test: Antibiogram by the disk diffusion technique
Protocol: The bacterial and antibiogramidentification is carried out by the VITEK 2 system (bioMerieux) and by the disk diffusion technique

[18] = test system: SaR1: Meticillin-Resistant Staphylococcus aureus without Associated Resistance; test: Antibiogram, MIC by the VITEK 2 system; details: SaR1
Protocol: as §4

[19] = test system: SaR4: Meticillin-Resistant Staphylococcus aureus; test: Antibiogram by the disk diffusion technique
Protocol: as §2

[20] = test system: SaR3: Meticillin-Resistant Staphylococcus aureus; test: Antibiogram by the disk diffusion technique
Protocol: as §2

[21] = EcR1, Table A2, read-out: MIC mg/L (diameter in mm)
[22] = EcR1, VITEK 2, Table A1, read-out: MIC
[23] = Pseudomonas aeruginosa, Table H2, read-out: MIC

In the case of `CC(C)(O/N=C(\C(=O)N[C@@H]1C(=O)N2C(C(=O)[O-])=C(C[n+]3ccccc3)CS[C@H]12)c1csc(N)n1)C(=O)O` [Ceftazidime], the Diameter ([1]; EcR2, disk diffusion, Table B1) was 20, the Results ([1]; Table B1) was “Intermediate” and the Diameter ([1]; EcR2, Table B2, diameters) was 20 mm. The “CA-SFM Interpretation” value ([1]; EcR2) was “Resistant”, the “CLSI Interpretation” value ([1]; EcR2) was “Intermediate” and the “EUCAST Interpretation” value ([1]; EcR2) was “Intermediate”. The MIC [2] was 8 µg/mL (≈ 14.6 µM), the “CA-SFM Interpretation” value [3] was “Susceptible” and the “CLSI Interpretation” value [3] was “Susceptible”. For the same compound, the “EUCAST Interpretation” value [3] was “Susceptible”, the Diameter [3] was 23 mm and the Results [3] was “Susceptible”. For the same compound, the diameter in mm [3] was 23 mm, the “CA-SFM Interpretation” value [4] was “Susceptible” and the “CLSI Interpretation” value [4] was “Susceptible”. The “EUCAST Interpretation” value [4] was “Susceptible”, the Results [4] was “Susceptible” and the MIC [4, 21] was at most 1 mg/L. The MIC [4, 22] was at most 1 mg/L, the “interaction between the antibiotic and Cx1” value [5] was “synergism” and the MIC [6] was 0.25 µg/mL. The MIC [7] was 4 µg/mL, the MIC [8] was 16 µg/mL and the MIC [9] was 1 µg/mL. The MIC [10] was 8 µg/mL, the MIC [11] was 8 µg/mL and the MIC [12] was 0.125 µg/mL. For the same compound, the “CA-SFM Interpretation” value [13] was “Susceptible”, the “CLSI Interpretation” value [13] was “Susceptible” and the “EUCAST Interpretation” value [13] was “Susceptible”. The MIC [13, 23] was 4 µg/mL (≈ 7.32 µM), the MIC ([13]; Table H1) was 4 µg/mL (≈ 7.32 µM) and the Results ([13]; Table H1) was “Susceptible”. The Diameter [14] was 32 mm, the Results [14] was “Susceptible” and the diameter in mm [14] was 32 mm. For the same compound, the “CA-SFM Interpretation” value [14] was “Susceptible”, the “CLSI Interpretation” value [14] was “Susceptible” and the “EUCAST Interpretation” value [14] was “Susceptible”.
In the case of `NC[C@H]1O[C@H](O[C@H]2[C@H](O)[C@@H](O[C@H]3O[C@H](CO)[C@@H](O)[C@H](N)[C@H]3O)[C@H](N)C[C@@H]2N)[C@H](N)C[C@@H]1O` [Tobramycin], the Diameter [15] was 22 mm, the Results ([15]; from diameter, against Dmin Dmax) was “Susceptible” and the Diameter ([16]; EcR1, disk diffusion) was 19 mm. The Results ([16]; EcR1, interpretation of the diameter against Dmin Dmax) was “Susceptible”, the Diameter ([1]; EcR2, disk diffusion, Table B1) was 10 and the Results ([1]; Table B1) was “Resistant”. For the same compound, the Diameter ([1]; EcR2, Table B2, diameters) was 10 mm, the “CA-SFM Interpretation” value ([1]; EcR2) was “Resistant” and the “CLSI Interpretation” value ([1]; EcR2) was “Resistant”. The “EUCAST Interpretation” value ([1]; EcR2) was “Resistant”, the MIC [2] was 1 µg/mL (≈ 2.14 µM) and the “CA-SFM Interpretation” value [3] was “Susceptible”. For the same compound, the “CLSI Interpretation” value [3] was “Susceptible”, the “EUCAST Interpretation” value [3] was “Susceptible” and the Diameter [3] was 24 mm. The Results [3] was “Susceptible”, the diameter in mm [3] was 24 mm and the “CA-SFM Interpretation” value [4] was “Susceptible”. The “CLSI Interpretation” value [4] was “Susceptible”, the “EUCAST Interpretation” value [4] was “Susceptible” and the Results [4] was “Susceptible”. For the same compound, the MIC [4, 21] was at most 1 mg/L, the MIC [4, 22] was at most 1 mg/L and the “interaction between the antibiotic and Cx1” value [5] was “synergism”. The “CA-SFM Interpretation” value ([17]; Cd CA-SFM 2011) was “Resistant”, the “CLSI Interpretation” value ([17]; Cd CLSI 2011) was “Resistant” and the “EUCAST Interpretation” value ([17]; Cd EUCAST 2011) was “Resistant”. The Diameter ([17]; Table C1) was 6 mm, the Results ([17]; Table C1, against Dmin Dmax) was “Resistant” and the diameter in mm ([17]; Table C2) was 6 mm. The MIC [6] was 0.25 µg/mL, the MIC [7] was 0.5 µg/mL and the MIC [8] was 64 µg/mL. For the same compound, the MIC [9] was 4 µg/mL, the MIC [10] was 1 µg/mL and the MIC [11] was 4 µg/mL. For the same compound, the MIC [12] was 0.25 µg/mL, the “CA-SFM Interpretation” value [13] was “Resistant” and the “CLSI Interpretation” value [13] was “Resistant”. The “EUCAST Interpretation” value [13] was “Resistant”, the MIC [13, 23] was at least 16 µg/mL and the MIC ([13]; Table H1) was “≧16”. The Results ([13]; Table H1) was “Resistant”, the “CA-SFM Interpretation” value ([18]; Cc CA-SFM 2011) was “Susceptible” and the “CLSI Interpretation” value ([18]; Cc CLSI 2011) was “Susceptible”. The “EUCAST Interpretation” value ([18]; Cc EUCAST 2011) was “Susceptible”, the Results ([18]; Table D1, from MIC) was “Susceptible” and the “MIC mg/L” value ([18]; Table D2) was “≦1 mg/L”. The MIC ([18]; Staphylococcus aureus, Table D1, read-out: MIC) was at most 1 µg/mL, the Diameter ([19]; Table F1) was 6 and the Results ([19]; Table F1, rows with a diameter) was “Resistant”. The Diameter ([19]; Table F2, diameters) was 6 mm, the “CA-SFM Interpretation” value ([19]; from diameter, CA-SFM 2011) was “Resistant” and the “CLSI Interpretation” value ([19]; from diameter, CLSI 2011) was “Resistant”. The “EUCAST Interpretation” value ([19]; from diameter, EUCAST 2011) was “Resistant”, the Diameter [14] was 28 mm and the Results [14] was “Susceptible”. For the same compound, the diameter in mm [14] was 28 mm, the “CA-SFM Interpretation” value [14] was “Susceptible” and the “CLSI Interpretation” value [14] was “Susceptible”. The “EUCAST Interpretation” value [14] was “Susceptible”, the “CA-SFM Interpretation” value ([20]; Cd CA-SFM 2011) was “Resistant” and the “CLSI Interpretation” value ([20]; Cd CLSI 2011) was “Resistant”. For the same compound, the “EUCAST Interpretation” value ([20]; Cd EUCAST 2011) was “Resistant”, the Diameter ([20]; Table E1) was 6 mm and the Results ([20]; Table E1, against Dmin Dmax) was “Resistant”. It also gave a diameter in mm ([20]; Table E2) of 6 mm.
